{"source": "patent US20180148418A1", "about": "“AMIDO-SUBSTITUTED CYCLOHEXANE DERIVATIVES” (Bayer Pharma Aktiengesellschaft, priority 2015, published 2018)", "key": {"[1]": {"system": "wildtype Wnt signaling cascade", "test": "HEK293 TOP assay (Super TopFlash luciferase reporter, Wnt-3a stimulated)", "type": "cell-based", "conditions": "Homo sapiens, HEK293, 16 h, HEK293 TOP reporter cells, Wnt3a at EC50, 16 hours", "in_short": "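HEK293 cells stably carrying Super TopFlash (TOP) run in parallel with FOP cells, 10000/well plated 24 h ahead, stimulated with recombinant human Wnt-3a. Compounds tested 50 μM to 15 nM in 3.16-fold steps in CAFTY buffer pH 7.4 with 2 mM Ca^2+ and 0.01% BSA; luciferase read-out.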"}, "TNKS2": {"target": "T1, TNKS2 (Homo sapiens, UniProt Q9H2K2)", "T1 construct": "purchased BPS Bioscience, San Diego, USA 80572 (TNKS2 Histone Ribosylation Assay Kit)", "T1 sequence (Q9H2K2 1-1166)": "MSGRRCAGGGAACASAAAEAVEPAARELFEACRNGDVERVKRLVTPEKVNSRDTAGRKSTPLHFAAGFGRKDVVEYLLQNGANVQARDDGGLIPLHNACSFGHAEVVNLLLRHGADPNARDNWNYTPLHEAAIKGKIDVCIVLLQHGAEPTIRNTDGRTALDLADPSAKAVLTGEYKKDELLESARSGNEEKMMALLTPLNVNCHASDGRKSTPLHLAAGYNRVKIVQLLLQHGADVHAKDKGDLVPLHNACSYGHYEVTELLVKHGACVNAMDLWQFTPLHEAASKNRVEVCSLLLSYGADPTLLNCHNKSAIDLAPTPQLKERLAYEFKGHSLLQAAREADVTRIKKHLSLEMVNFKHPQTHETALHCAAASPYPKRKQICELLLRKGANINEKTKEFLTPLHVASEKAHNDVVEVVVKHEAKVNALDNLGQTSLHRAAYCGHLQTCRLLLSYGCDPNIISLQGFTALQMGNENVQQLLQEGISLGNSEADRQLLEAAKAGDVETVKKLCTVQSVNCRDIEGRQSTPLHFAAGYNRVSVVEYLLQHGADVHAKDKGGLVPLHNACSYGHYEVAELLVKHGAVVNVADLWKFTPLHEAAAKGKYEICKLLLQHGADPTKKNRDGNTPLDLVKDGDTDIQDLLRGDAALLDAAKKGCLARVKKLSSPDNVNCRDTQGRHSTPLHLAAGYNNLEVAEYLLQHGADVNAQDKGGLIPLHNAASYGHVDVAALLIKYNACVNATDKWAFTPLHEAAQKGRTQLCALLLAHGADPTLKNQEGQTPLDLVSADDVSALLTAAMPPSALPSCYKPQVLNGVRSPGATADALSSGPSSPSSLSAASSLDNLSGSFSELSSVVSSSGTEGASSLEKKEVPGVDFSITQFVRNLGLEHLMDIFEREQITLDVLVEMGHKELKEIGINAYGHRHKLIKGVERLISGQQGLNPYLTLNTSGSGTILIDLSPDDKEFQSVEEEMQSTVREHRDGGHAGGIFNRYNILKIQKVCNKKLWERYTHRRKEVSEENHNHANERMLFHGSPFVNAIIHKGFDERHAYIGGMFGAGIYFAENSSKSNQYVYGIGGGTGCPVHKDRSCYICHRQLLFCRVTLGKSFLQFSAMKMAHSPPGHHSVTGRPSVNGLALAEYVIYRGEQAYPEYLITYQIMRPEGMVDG", "test": "TNKS2 Assay B (auto-parsylation, [3H]-NAD+ SPA)", "type": "biochemical", "conditions": "6 nM TNKS2, auto-parsylation, over night at room temperature"}}}
{"smiles": "CNC(=O)c1nc[nH]c1C(=O)N[C@H]1CC[C@H](C(=O)Nc2cc(C)c(F)cc2Cl)CC1", "note": "[Example 63, N^5-{trans-4-[(2-chloro-4-fluoro-5-methylphenyl)carbamoyl]cyclohexyl}-N^4-methyl-1H-imidazole-4,5-dicarboxamide]", "values": [{"measurement": "IC50", "setting": "[1]", "result": 54, "unit": "nM"}, {"measurement": "IC50", "setting": "TNKS2", "result": 31, "unit": "nM"}]}
{"smiles": "Cc1cc(NC(=O)[C@H]2CC[C@H](NC(=O)c3[nH]cnc3C(=O)NCC3CCCO3)CC2)c(Cl)cc1F", "note": "(stereo partly drawn) [Example 64, N^5-{trans-4-[(2-chloro-4-fluoro-5-methylphenyl)carbamoyl]cyclohexyl}-N^4-(tetrahydrofuran-2-ylmethyl)-1H-imidazole-4,5-dicarboxamide]", "values": [{"measurement": "IC50", "setting": "[1]", "result": 740, "unit": "nM"}, {"measurement": "IC50", "setting": "TNKS2", "result": 49, "unit": "nM"}]}
{"smiles": "COCC(C)NC(=O)c1nc[nH]c1C(=O)N[C@H]1CC[C@H](C(=O)Nc2c(F)cc(F)cc2Cl)CC1", "note": "(stereo partly drawn) [Example 65, N^5-{trans-4-[(2-chloro-4,6-difluorophenyl)carbamoyl]cyclohexyl}-N^4-(1-methoxypropan-2-yl)-1H-imidazole-4,5-dicarboxamide]", "values": [{"measurement": "IC50", "setting": "[1]", "result": 230, "unit": "nM"}, {"measurement": "IC50", "setting": "TNKS2", "result": 190, "unit": "nM"}]}
{"smiles": "COC[C@H](C)NC(=O)c1nc[nH]c1C(=O)N[C@H]1CC[C@H](C(=O)Nc2c(F)cc(F)cc2Cl)CC1", "note": "[Example 66, N^5-{trans-4-[(2-chloro-4,6-difluorophenyl)carbamoyl]cyclohexyl}-N^4-[(2S)-1-methoxypropan-2-yl]-1H-imidazole-4,5-dicarboxamide]", "values": [{"measurement": "IC50", "setting": "[1]", "result": 250, "unit": "nM"}, {"measurement": "IC50", "setting": "TNKS2", "result": 280, "unit": "nM"}]}
{"smiles": "COC[C@@H](C)NC(=O)c1nc[nH]c1C(=O)N[C@H]1CC[C@H](C(=O)Nc2c(F)cc(F)cc2Cl)CC1", "note": "[Example 67, N^5-{trans-4-[(2-chloro-4,6-difluorophenyl)carbamoyl]cyclohexyl}-N^4-[(2R)-1-methoxypropan-2-yl]-1H-imidazole-4,5-dicarboxamide]", "values": [{"measurement": "IC50", "setting": "[1]", "result": 220, "unit": "nM"}, {"measurement": "IC50", "setting": "TNKS2", "result": 280, "unit": "nM"}]}
{"smiles": "COC(C)CNC(=O)c1nc[nH]c1C(=O)N[C@H]1CC[C@H](C(=O)Nc2c(F)cc(F)cc2Cl)CC1", "note": "(stereo partly drawn) [Example 68, N^5-{trans-4-[(2-chloro-4,6-difluorophenyl)carbamoyl]cyclohexyl}-N^4-(2-methoxypropyl)-1H-imidazole-4,5-dicarboxamide]", "values": [{"measurement": "IC50", "setting": "[1]", "result": 120, "unit": "nM"}, {"measurement": "IC50", "setting": "TNKS2", "result": 79, "unit": "nM"}]}
{"smiles": "O=C(NCC1CCCO1)c1nc[nH]c1C(=O)N[C@H]1CC[C@H](C(=O)Nc2c(F)cc(F)cc2Cl)CC1", "note": "(stereo partly drawn) [Example 69, N^5-{trans-4-[(2-chloro-4,6-difluorophenyl)carbamoyl]cyclohexyl}-N^4-(tetrahydrofuran-2-ylmethyl)-1H-imidazole-4,5-dicarboxamide]", "values": [{"measurement": "IC50", "setting": "[1]", "result": 170, "unit": "nM"}, {"measurement": "IC50", "setting": "TNKS2", "result": 57, "unit": "nM"}]}
{"smiles": "O=C(NC[C@H]1CCCO1)c1nc[nH]c1C(=O)N[C@H]1CC[C@H](C(=O)Nc2c(F)cc(F)cc2Cl)CC1", "note": "[Example 70, N^5-{trans-4-[(2-chloro-4,6-difluorophenyl)carbamoyl]cyclohexyl}-N^4-[(2R)-tetrahydrofuran-2-ylmethyl]-1H-imidazole-4,5-dicarboxamide]", "values": [{"measurement": "IC50", "setting": "[1]", "result": 220, "unit": "nM"}, {"measurement": "IC50", "setting": "TNKS2", "result": 76, "unit": "nM"}]}
{"smiles": "O=C(N[C@H]1CC[C@H](C(=O)Nc2ccc(F)cc2Cl)CC1)c1[nH]cnc1C(=O)N1CC(F)(F)C1", "note": "[Example 72, N-{trans-4-[(2-chloro-4-fluorophenyl)carbamoyl]cyclohexyl}-4-[(3,3-difluoroazetidin-1-yl)carbonyl]-1H-imidazole-5-carboxamide]", "values": [{"measurement": "IC50", "setting": "[1]", "result": 140, "unit": "nM"}, {"measurement": "IC50", "setting": "TNKS2", "result": 26, "unit": "nM"}]}
{"smiles": "COC(C)(C)CNC(=O)c1nc[nH]c1C(=O)N[C@H]1CC[C@H](C(=O)Nc2ccc(F)cc2Cl)CC1", "note": "[Example 73, N^5-{trans-4-[(2-chloro-4-fluorophenyl)carbamoyl]cyclohexyl}-N^4-(2-methoxy-2-methylpropyl)-1H-imidazole-4,5-dicarboxamide]", "values": [{"measurement": "IC50", "setting": "[1]", "result": 400, "unit": "nM"}, {"measurement": "IC50", "setting": "TNKS2", "result": 190, "unit": "nM"}]}
{"smiles": "O=C(NCCC1CC1)c1nc[nH]c1C(=O)N[C@H]1CC[C@H](C(=O)Nc2ccc(F)cc2Cl)CC1", "note": "[Example 74, N^5-{trans-4-[(2-chloro-4-fluorophenyl)carbamoyl]cyclohexyl}-N^4-(2-cyclopropylethyl)-1H-imidazole-4,5-dicarboxamide]", "values": [{"measurement": "IC50", "setting": "[1]", "result": 190, "unit": "nM"}, {"measurement": "IC50", "setting": "TNKS2", "result": 73, "unit": "nM"}]}
{"smiles": "CC(C)(O)CNC(=O)c1nc[nH]c1C(=O)N[C@H]1CC[C@H](C(=O)Nc2ccc(F)cc2Cl)CC1", "note": "[Example 75, N^5-{trans-4-[(2-chloro-4-fluorophenyl)carbamoyl]cyclohexyl}-N^4-(2-hydroxy-2-methylpropyl)-1H-imidazole-4,5-dicarboxamide]", "values": [{"measurement": "IC50", "setting": "[1]", "result": 370, "unit": "nM"}, {"measurement": "IC50", "setting": "TNKS2", "result": 100, "unit": "nM"}]}
{"smiles": "CC(C)OCCNC(=O)c1nc[nH]c1C(=O)N[C@H]1CC[C@H](C(=O)Nc2ccc(F)cc2Cl)CC1", "note": "[Example 76, N^5-{trans-4-[(2-chloro-4-fluorophenyl)carbamoyl]cyclohexyl}-N^4-(2-isopropoxyethyl)-1H-imidazole-4,5-dicarboxamide]", "values": [{"measurement": "IC50", "setting": "[1]", "result": 230, "unit": "nM"}, {"measurement": "IC50", "setting": "TNKS2", "result": 78, "unit": "nM"}]}
{"smiles": "CC(C)NCCNC(=O)c1nc[nH]c1C(=O)N[C@H]1CC[C@H](C(=O)Nc2ccc(F)cc2Cl)CC1", "note": "[Example 77, N^5-{trans-4-[(2-chloro-4-fluorophenyl)carbamoyl]cyclohexyl}-N^4-[2-(isopropylamino)ethyl]-1H-imidazole-4,5-dicarboxamide]", "values": [{"measurement": "IC50", "setting": "[1]", "result": 270, "unit": "nM"}, {"measurement": "IC50", "setting": "TNKS2", "result": 60, "unit": "nM"}]}
{"smiles": "O=C(NCC1CCCO1)c1nc[nH]c1C(=O)N[C@H]1CC[C@H](C(=O)Nc2ccc(F)cc2Cl)CC1", "note": "(stereo partly drawn) [Example 78, N^5-{trans-4-[(2-chloro-4-fluorophenyl)carbamoyl]cyclohexyl}-N^4-(tetrahydrofuran-2-ylmethyl)-1H-imidazole-4,5-dicarboxamide]", "values": [{"measurement": "IC50", "setting": "[1]", "result": 130, "unit": "nM"}, {"measurement": "IC50", "setting": "TNKS2", "result": 89, "unit": "nM"}]}
{"smiles": "O=C(NC[C@@H]1CCCO1)c1nc[nH]c1C(=O)N[C@H]1CC[C@H](C(=O)Nc2ccc(F)cc2Cl)CC1", "note": "[Example 79, N^5-{trans-4-[(2-chloro-4-fluorophenyl)carbamoyl]cyclohexyl}-N^4-[(2S)-tetrahydrofuran-2-ylmethyl]-1H-imidazole-4,5-dicarboxamide]", "values": [{"measurement": "IC50", "setting": "[1]", "result": 140, "unit": "nM"}, {"measurement": "IC50", "setting": "TNKS2", "result": 100, "unit": "nM"}]}
{"smiles": "O=C(NC[C@H]1CCCO1)c1nc[nH]c1C(=O)N[C@H]1CC[C@H](C(=O)Nc2ccc(F)cc2Cl)CC1", "note": "[Example 80, N^5-{trans-4-[(2-chloro-4-fluorophenyl)carbamoyl]cyclohexyl}-N^4-[(2R)-tetrahydrofuran-2-ylmethyl]-1H-imidazole-4,5-dicarboxamide]", "values": [{"measurement": "IC50", "setting": "[1]", "result": 90, "unit": "nM"}, {"measurement": "IC50", "setting": "TNKS2", "result": 50, "unit": "nM"}]}
{"smiles": "COC(C)CNC(=O)c1nc[nH]c1C(=O)N[C@H]1CC[C@H](C(=O)Nc2ccc(F)cc2Cl)CC1", "note": "(stereo partly drawn) [Example 81, N^5-{trans-4-[(2-chloro-4-fluorophenyl)carbamoyl]cyclohexyl}-N^4-(2-methoxypropyl)-1H-imidazole-4,5-dicarboxamide]", "values": [{"measurement": "IC50", "setting": "[1]", "result": 150, "unit": "nM"}, {"measurement": "IC50", "setting": "TNKS2", "result": 72, "unit": "nM"}]}
{"smiles": "COCC(C)NC(=O)c1nc[nH]c1C(=O)N[C@H]1CC[C@H](C(=O)Nc2ccc(F)cc2Cl)CC1", "note": "(stereo partly drawn) [Example 82, N^5-{trans-4-[(2-chloro-4-fluorophenyl)carbamoyl]cyclohexyl}-N^4-(1-methoxypropan-2-yl)-1H-imidazole-4,5-dicarboxamide]", "values": [{"measurement": "IC50", "setting": "[1]", "result": 380, "unit": "nM"}, {"measurement": "IC50", "setting": "TNKS2", "result": 250, "unit": "nM"}]}
{"smiles": "COC[C@H](C)NC(=O)c1nc[nH]c1C(=O)N[C@H]1CC[C@H](C(=O)Nc2ccc(F)cc2Cl)CC1", "note": "[Example 83, N^5-{trans-4-[(2-chloro-4-fluorophenyl)carbamoyl]cyclohexyl}-N^4-[(2S)-1-methoxypropan-2-yl]-1H-imidazole-4,5-dicarboxamide]", "values": [{"measurement": "IC50", "setting": "[1]", "result": 240, "unit": "nM"}, {"measurement": "IC50", "setting": "TNKS2", "result": 270, "unit": "nM"}]}
